Measurements published in patent US12084436B2, “Heterocyclic compound” (Takeda Pharmaceutical Company Limited, priority 2019, dated 2024).

Target: T1, HDAC6 enzyme (Homo sapiens, UniProt Q9UBN7)
T1 construct: prepared by transducing full length HDAC6 gene into Sf-9 insect cells; GST; purchased SignalChem; host or cells: Sf-9 insect cells
T1 sequence (Q9UBN7 1-1215): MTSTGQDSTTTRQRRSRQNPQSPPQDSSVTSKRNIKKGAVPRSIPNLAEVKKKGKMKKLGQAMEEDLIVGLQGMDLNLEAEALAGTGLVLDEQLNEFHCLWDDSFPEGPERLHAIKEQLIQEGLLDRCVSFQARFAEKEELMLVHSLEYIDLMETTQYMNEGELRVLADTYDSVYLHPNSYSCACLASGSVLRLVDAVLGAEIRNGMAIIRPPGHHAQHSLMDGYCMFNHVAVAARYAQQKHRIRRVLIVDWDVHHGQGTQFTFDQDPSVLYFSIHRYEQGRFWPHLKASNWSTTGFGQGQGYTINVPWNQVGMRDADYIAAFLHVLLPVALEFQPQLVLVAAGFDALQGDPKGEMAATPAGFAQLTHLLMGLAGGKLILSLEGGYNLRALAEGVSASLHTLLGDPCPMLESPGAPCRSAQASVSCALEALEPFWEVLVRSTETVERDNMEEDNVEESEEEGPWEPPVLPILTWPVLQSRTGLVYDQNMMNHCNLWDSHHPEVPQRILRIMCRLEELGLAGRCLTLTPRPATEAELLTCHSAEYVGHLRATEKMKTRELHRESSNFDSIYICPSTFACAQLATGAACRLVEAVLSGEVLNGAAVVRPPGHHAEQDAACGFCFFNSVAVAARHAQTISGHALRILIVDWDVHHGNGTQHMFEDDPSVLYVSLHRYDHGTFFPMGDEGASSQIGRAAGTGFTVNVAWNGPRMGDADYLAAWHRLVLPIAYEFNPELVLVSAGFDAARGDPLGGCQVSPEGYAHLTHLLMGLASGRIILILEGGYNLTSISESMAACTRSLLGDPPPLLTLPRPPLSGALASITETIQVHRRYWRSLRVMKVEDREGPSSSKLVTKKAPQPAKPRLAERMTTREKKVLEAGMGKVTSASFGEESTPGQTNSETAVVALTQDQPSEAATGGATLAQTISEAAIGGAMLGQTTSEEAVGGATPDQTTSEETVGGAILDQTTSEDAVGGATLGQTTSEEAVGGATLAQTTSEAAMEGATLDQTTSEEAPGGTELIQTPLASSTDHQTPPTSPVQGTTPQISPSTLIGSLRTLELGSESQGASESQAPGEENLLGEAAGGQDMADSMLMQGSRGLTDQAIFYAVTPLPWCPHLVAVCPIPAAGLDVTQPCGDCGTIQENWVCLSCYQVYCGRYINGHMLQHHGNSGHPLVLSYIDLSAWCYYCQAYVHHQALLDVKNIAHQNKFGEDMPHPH
Test: HDAC6 enzyme inhibitory assay (HDAC-Glo I/II Assay kit, luminescence)
Assay type: biochemical
Conditions: 10 μM test compound, wells without enzyme = 100% inhibition; for inhibition at 10 µM: read-out: HDAC6 inhibitory rate (%) (10 μM)
Procedure, shortened: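 Full-length human HDAC6, GST-purified from Sf-9 cells, was preincubated with compound for 60 min at room temperature in Tris-HCl pH 7.5 buffer with glutathione and Tween-20. Substrate-developer was then added, and luminescence was read after 20 min at room temperature. Inhibition was expressed relative to no-enzyme wells, taken as 100% inhibition.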

SMILES | inhibition at 10 µM [%] | HDAC6 inhibitory rate (%) (10 μM)
O=C1NN(c2ccc(F)c(F)c2)Cc2ccc(-c3nnc(C(F)F)o3)cc21 [Example 30b, 7-[5-(difluoromethyl)-1,3,4-oxadiazol-2-yl]-3-(3,4-difluorophenyl)-3,4-dihydrophthalazin-1(2H)-one] | 100 | –
COc1cncc(Cn2ccnc2-c2cc(F)cc(-c3nnc(C(F)F)o3)c2)n1 [Example 58a, 2-[(2-{3-[5-(difluoromethyl)-1,3,4-oxadiazol-2-yl]-5-fluorophenyl}-1H-imidazol-1-yl)methyl]-6-methoxypyrazine] | 98 | –
CCNC(=O)Cn1ccnc1-c1cc(F)cc(-c2nnc(C(F)F)o2)c1 [Example 32a, 2-(2-{3-[5-(difluoromethyl)-1,3,4-oxadiazol-2-yl]-5-fluorophenyl]-1H-imidazol-1-yl)-N-ethylacetamide] | 91 | –
CN1C(=O)c2cc(-c3nnc(C(F)F)o3)ccc2C[C@]1(C)c1ccc(F)c(F)c1 [Example 50b, (3R)-7-[5-(difluoromethyl)-1,3,4-oxadiazol-2-yl]-3-(3,4-difluorophenyl)-2,3-dimethyl-3,4-dihydroisoquinolin-1(2H)-one] | 101 | –
O=C1NN(c2ccc(F)cc2)Cc2ccc(-c3nnc(C(F)F)o3)cc21 [Example 2b, 7-[5-(difluoromethyl)-1,3,4-oxadiazol-2-yl]-3-(4-fluorophenyl)-3,4-dihydrophthalazin-1(2H)-one] | 100 | –
CN1C(=O)c2cc(-c3nnc(C(F)F)o3)ccc2OC1(C)c1ccc(C#N)cc1 (single isomer, unassigned; isomer 1) [Example 36b, 4-{6-[5-(difluoromethyl)-1,3,4-oxadiazol-2-yl]-2,3-dimethyl-4-oxo-3,4-dihydro-2H-1,3-benzoxazin-2-yl}benzonitrile (optical isomer 1)] | – | 62
CN1C(=O)c2cc(-c3nnc(C(F)F)o3)cnc2CC1(C)c1ccc(F)c(F)c1 (single isomer, unassigned; isomer 2) [Example 40b, 3-[5-(difluoromethyl)-1,3,4-oxadiazol-2-yl]-7-(3,4-difluorophenyl)-6,7-dimethyl-7,8-dihydro-1,6-naphthyridin-5(6H)-one (optical isomer 2)] | – | 100
C[C@@]1(c2ccc(F)cc2)Cc2ncc(-c3nnc(C(F)F)o3)cc2C(=O)N1CC(F)F [Example 54b, (7S)-6-(2,2-difluoroethyl)-3-[5-(difluoromethyl)-1,3,4-oxadiazol-2-yl]-7-(4-fluorophenyl)-7-methyl-7,8-dihydro-1,6-naphthyridin-5(6H)-one] | 75 | –
CN(CC1CCC(F)(F)CC1)N1Cc2ccc(-c3nnc(C(F)F)o3)cc2C1=O [Example 62c, 2-{[(4,4-difluorocyclohexyl)methyl](methyl)amino}-6-[5-(difluoromethyl)-1,3,4-oxadiazol-2-yl]-2,3-dihydro-1H-isoindol-1-one] | 100 | –
Fc1cc(-c2nnc(C(F)F)o2)cc(-c2nccn2Cc2cccnc2)c1 [Example 49a] | 99 | –
O=C1c2cc(-c3nnc(C(F)F)o3)ccc2CN1N(CC1CCOCC1)CC1CCOCC1 [Example 18c, 2-{bis[(oxan-4-yl)methyl]amino}-6-[5-(difluoromethyl)-1,3,4-oxadiazol-2-yl]-2,3-dihydro-1H-isoindol-1-one] | 99 | –
Cc1cc(COc2cccnc2-c2cc(F)cc(-c3nnc(C(F)F)o3)c2)nn1C [Example 10a, 2-(3-[5-(difluoromethyl)-1,3,4-oxadiazol-2-yl]-5-fluorophenyl}-3-[(1,5-dimethyl-1H-pyrazol-3-yl)methoxy]pyridine] | 96 | –
CN(Cc1cc(O)ccc1F)N1Cc2ccc(-c3nnc(C(F)F)o3)cc2C1=O [Example 49c, 6-[5-(difluoromethyl)-1,3,4-oxadiazol-2-yl]-2-{[(2-fluoro-5-hydroxyphenyl)methyl](methyl)amino}-2,3-dihydro-1H-isoindol-1-one] | 100 | –
FC(F)c1nnc(-c2cccc(-n3nccc3C3CC3)c2)o1 [Example 2a, 2-[3-(5-cyclopropyl-1H-pyrazol-1-yl)phenyl]-5-(difluoromethyl)-1,3,4 oxadiazole] | 104 | –
Fc1cc(-c2nnc(C(F)F)o2)cc(-c2nccn2Cc2ccc(Cl)cc2)c1 [Example 22a, 2-(3-{1-[(4-chlorophenyl)methyl]-1H-imidazol-2-yl}-5-fluorophenyl)-5-(difluoromethyl)-1,3,4-oxadiazole] | 99 | –
CN1C(=O)c2cc(-c3nnc(C(F)F)o3)ccc2CC1(C)c1ccc(F)cc1 (single isomer, unassigned; isomer 1) [Example 23b, 7-[5-(difluoromethyl)-1,3,4-oxadiazol-2-yl]-3-(4-fluorophenyl)-2,3-dimethyl-3,4-dihydroisoquinolin-1(2H)-one (optical isomer 1)] | – | 58
CN1C(=O)c2cc(-c3nnc(C(F)F)o3)ccc2OC1(C)c1ccc(C#N)cc1 (stereo not drawn) [Example 20b, 4-{6-[5-(difluoromethyl)-1,3,4-oxadiazol-2-yl]-2,3-dimethyl-4-oxo-3,4-dihydro-2H-1,3-benzoxazin-2-yl}benzonitrile] | 99 | –
CN(C1CC1)N1Cc2ccc(-c3nnc(C(F)F)o3)cc2C1=O [Example 66c, 2-[cyclopropyl(methyl)amino]-6-[5-(difluoromethyl)-1,3,4-oxadiazol-2-yl]-2,3-dihydro-1H-isoindol-1-one] | 94 | –
Fc1cc(-c2nnc(C(F)F)o2)cc(-c2nccn2Cc2ccncc2)c1 [Example 24a, 4-[(2-{3-[5-(difluoromethyl)-1,3,4-oxadiazol-2-yl]-5-fluorophenyl}-1H-imidazol-1-yl)methyl]pyridine] | 98 | –
O=C1c2cc(-c3nnc(C(F)F)o3)ccc2CN1NCC(F)(F)F [Example 31c, 6-[5-(difluoromethyl)-1,3,4-oxadiazol-2-yl]-2-[(2,2,2-trifluoroethyl)amino]-2,3-dihydro-1H-isoindol-1-one] | 90 | –
Cn1ccc(Cn2ccnc2-c2cc(F)cc(-c3nnc(C(F)F)o3)c2)n1 [Example 23a, 2-(difluoromethyl)-5-(3-fluoro-5-{1-[(1-methyl-1H-pyrazol-3-yl)methyl]-1H-imidazol-2-yl}phenyl)-1,3,4-oxadiazole] | 96 | –
Fc1cc(-c2nnc(C(F)F)o2)cc(-c2nccn2Cc2ccccc2Cl)c1 [Example 20a, 2-(3-{1-[(2-chlorophenyl)methyl]-1H-imidazol-2-yl]-5-fluorophenyl)-5-(difluoromethyl)-1,3,4-oxadiazole] | 97 | –
CN(Cc1cncc(Cl)c1)N1Cc2ccc(-c3nnc(C(F)F)o3)cc2C1=O [Example 60c, 2-{[(5-chloropyridin-3-yl)methyl] (methyl)amino}-6-[5-(difluoromethyl)-1,3,4-oxadiazol-2-yl]-2,3-dihydro-1H-isoindol-1-one] | 101 | –
CN1C(=O)c2cc(-c3nnc(C(F)F)o3)ccc2OC1(C)c1ccc(F)cc1 (stereo not drawn) [Example 7b, 6-[5-(difluoromethyl)-1,3,4-oxadiazol-2-yl]-2-(4-fluorophenyl)-2,3-dimethyl-2,3-dihydro-4H-1,3-benzoxazin-4-one] | 100 | –
Fc1cccc(Cc2ncnn2-c2cc(-c3nnc(C(F)F)o3)ccn2)c1 [Example 89a, 4-[5-(difluoromethyl)-1,3,4-oxadiazol-2-yl]-2-{5-[(3-fluorophenyl)methyl]-1H-1,2,4-triazol-1-yl}pyridine] | 97 | –
O=C1c2cc(-c3nnc(C(F)F)o3)ccc2CN1Nc1ccc(F)cc1 [Example 30c, 6-[5-(difluoromethyl)-1,3,4-oxadiazol-2-yl]-2-(4-fluoroanilino)-2,3-dihydro-1H-isoindol-1-one] | 92 | –
CN1C(=O)c2cc(-c3nnc(C(F)F)o3)ccc2OC1(C)c1ccccc1Cl (stereo not drawn) [Example 16b, 2-(2-chlorophenyl)-6-[5-(difluoromethyl)-1,3,4-oxadiazol-2-yl]-2,3-dimethyl-2,3-dihydro-4H-1,3-benzoxazin-4-one] | 98 | –
